Tests used:
VEGF RTK = conditions: cited from earlier work
LNCaP tumour xenografts = assay: LNCaP Human Prostate Cancer Xenograft Model; type: in vivo, Swiss nude mice; conditions: for tumour volume versus orchiectomy and control groups: P<0.001 versus each group
Procedure: Six to eight-week-old Swiss nude mice were given one injection in the anterior flank with 5×10^6 tumour cells suspended in 0.1 ml of serum-free medium with the addition of 100 μl of Matrigel. Once tumours were established, mice were randomized into control and treatment groups.
Mice were examined twice a week, and tumours were measured with calipers across the greatest two diameters. At the time of euthanasia, tumours were removed by dissection away from adjacent organs and structures and weighed on an analytical balance. For histologic analysis, tissue samples were fixed in 10% neutral buffered formalin and processed through graded ethanols and xylenes for paraffin embedding and staining using standard methods. For calculation of percent necrosis, 5 random fields per tumour were examined at low power (10×) from tumours harvested at 40 days. The necrotic area(s) in each field was/were circumscribed electronically using the tools available in the ImagePro computerized image analysis package (Media Cybernetics) to create an area. A human operator carried out this identification and circling of the necrotic area for all analyzed issues. Using the total area of the section as the denominator, the percentage of necrosis was evaluated for each field. To obtain an average for a whole experimental tumour group, the percent necrosis for each field was averaged across the total number of tumours in the group.
Repeated measure models were used for the analysis of the in vivo tumour volumes. Several covariance structures, including AR- 1 and random coefficient models, were used and all yielded similar conclusions. The analyses reported herein are based on a random coefficient model with robust estimates of the covariance matrix. Specific comparisons between treatment groups were made using F-test based on contrasts. Statistical analyses were carried out in SAS PROC MIXED; the plots were prepared in GAUSS 5.0. Error bars represent one standard error from the mean. Time from treatment initiation to the time that tumour volumes exceeded a cut-off value (a tumour volume of >300 mm^3) were estimated with Kaplan-Meier curves and compared across treatment groups with the log-rank test. Tumour volume cut-offs were used to avoid using a survival endpoint, which would have involved significant animal distress and to employ a threshold that was appropriate for comparing the tumour growth data across all groups.

What does the source list for `COc1cc2c(Nc3ccc(Br)cc3F)ncnc2cc1OCC1CCN(C)CC1` [ZD6474, 4-(4-bromo-2-fluoroanilino)-6-methoxy-7-(1-methylpiperidin-4-ylmethoxy)quinazoline]?
inhibition of VEGF RTK (VEGF RTK): potent inhibitor; delay before tumour growth resumed after compound withdrawal (LNCaP tumour xenografts; ZD6474 alone 50 mg/kg/day for 40 days, then withdrawn, normal mice): approximately 15 days; tumour volume versus orchiectomy and control groups (LNCaP tumour xenografts; ZD6474 alone 50 mg/kg/day, after 38 days of treatment): significant differences in tumour volume; tumour volume versus orchiectomy group (LNCaP tumour xenografts; ZD6474 alone 50 mg/kg/day, days 13 to 38 post-treatment, P<0.05): Statistically significant differences; percentage of necrosis (LNCaP tumour xenografts; ZD6474 alone, 50 mg/kg/day once daily p.o., normal mice, tumours harvested at day 40, 5 tumours, vehicle control 31±7%): 48±5%; percentage of necrosis (LNCaP tumour xenografts; combination of orchiectomy and ZD6474 50 mg/kg/day, tumours harvested at day 40, versus 51±5% in monotherapy, P=0.01): 73±6%; tumour volume versus orchiectomy and control groups (LNCaP tumour xenografts; combination therapy group (ZD6474 50 mg/kg/day plus orchiectomy), after 38 days): significant differences were observed; rate of tumour growth after ZD6474 withdrawal versus untreated tumours (LNCaP tumour xenografts; previously ZD6474 treated tumours, delay of approximately 15 days taken into account): no significant difference
